Assay results reported in ChEMBL document CHEMBL3421566 (J Med Chem, 2015).
In brackets after ≈: the same amount, converted by molar mass. Activity calls are given as the source filed them. The calls are words filed in the database; no cut-off is given here.

Assays:
[1] = molecular target: T1, 1-deoxy-D-xylulose 5-phosphate reductoisomerase (Mycobacterium tuberculosis, UniProt P9WNS1); assay: Inhibition of recombinant Mycobacterium tuberculosis Dxr expressed in Escherichia coli BL21 CodonPlus (DE3)-RIL cells using DOXP as substrate assessed as NADPH oxidation by spectrophotometric analysis
T1 sequence (P9WNS1 whole entry): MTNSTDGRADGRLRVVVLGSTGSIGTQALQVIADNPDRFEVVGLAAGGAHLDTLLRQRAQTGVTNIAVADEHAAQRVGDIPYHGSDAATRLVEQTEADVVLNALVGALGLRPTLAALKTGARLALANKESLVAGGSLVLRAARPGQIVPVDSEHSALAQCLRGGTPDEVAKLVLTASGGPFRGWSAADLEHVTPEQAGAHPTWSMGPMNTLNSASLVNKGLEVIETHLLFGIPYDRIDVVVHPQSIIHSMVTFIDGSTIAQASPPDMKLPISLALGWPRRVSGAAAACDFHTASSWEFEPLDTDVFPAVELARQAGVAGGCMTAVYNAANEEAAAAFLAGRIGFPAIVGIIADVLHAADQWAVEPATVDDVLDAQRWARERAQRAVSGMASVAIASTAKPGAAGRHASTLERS

[2] = molecular target: T2, 1-deoxy-D-xylulose 5-phosphate reductoisomerase (Escherichia coli, UniProt W8T2T2); assay: Inhibition of recombinant Escherichia coli Dxr expressed in Escherichia coli BL21 CodonPlus (DE3)-RIL cells using DOXP as substrate assessed as NADPH oxidation preincubated for 5 mins with NADPH followed by substrate addition by spectrophotometric analysis
T2 sequence (W8T2T2 whole entry): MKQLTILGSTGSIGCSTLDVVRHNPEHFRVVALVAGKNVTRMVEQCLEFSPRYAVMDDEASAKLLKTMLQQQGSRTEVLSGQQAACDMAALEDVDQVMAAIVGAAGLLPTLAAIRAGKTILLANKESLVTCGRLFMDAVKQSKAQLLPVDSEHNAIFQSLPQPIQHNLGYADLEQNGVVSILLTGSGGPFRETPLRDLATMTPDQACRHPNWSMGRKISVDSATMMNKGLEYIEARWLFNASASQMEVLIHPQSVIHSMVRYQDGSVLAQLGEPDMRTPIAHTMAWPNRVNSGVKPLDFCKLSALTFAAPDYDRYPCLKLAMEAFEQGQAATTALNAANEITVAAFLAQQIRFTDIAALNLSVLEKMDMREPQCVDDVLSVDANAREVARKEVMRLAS

[3] = test system: Plasmodium falciparum; assay: Schizontocidal activity against Plasmodium falciparum K1 infected in human RBC after 72 hrs by Malstat reagent-based spectrophotometric analysis; type: functional; conditions: K1, 72 h
[4] = molecular target: T3, 1-deoxy-D-xylulose 5-phosphate reductoisomerase (Mycobacterium tuberculosis) (UniProt P9WNS1); assay: Inhibition of recombinant Mycobacterium tuberculosis Dxr expressed in Escherichia coli BL21 CodonPlus (DE3)-RIL cells using DOXP as substrate assessed as NADPH oxidation at 100 uM by spectrophotometric analysis
T3 sequence (whole entry): T1 sequence (P9WNS1 whole entry)

[5] = molecular target: T4, 1-deoxy-D-xylulose 5-phosphate reductoisomerase (Escherichia coli) (UniProt W8T2T2); assay: Inhibition of recombinant Escherichia coli Dxr expressed in Escherichia coli BL21 CodonPlus (DE3)-RIL cells using DOXP as substrate assessed as NADPH oxidation at 100 uM preincubated for 5 mins with NADPH followed by substrate addition by spectrophotometric analysis
T4 sequence (whole entry): T2 sequence (W8T2T2 whole entry)

[6] = Inhibition of recombinant Plasmodium falciparum Dxr expressed in Escherichia coli C43(DE3) using DOXP as substrate assessed as NADPH oxidation by spectrophotometric analysis
[7] = test system: Escherichia coli; assay: Antibacterial activity against Escherichia coli ATCC 8739 by two-fold broth microdilution method; type: functional
[8] = test system: Escherichia coli; assay: Antibacterial activity against Escherichia coli ATCC 25922 by two-fold broth microdilution method; type: functional
[9] = test system: Escherichia coli; assay: Antibacterial activity against Escherichia coli K-12 by two-fold broth microdilution method; type: functional
[10] = test system: Mycolicibacterium smegmatis; assay: Antibacterial activity against Mycobacterium smegmatis ATCC 607 after 24 to 48 hrs by two-fold broth microdilution method; type: functional
[11] = test system: Mycolicibacterium smegmatis; assay: Antibacterial activity against Mycobacterium smegmatis ATCC 700084 after 24 to 48 hrs by two-fold broth microdilution method; type: functional
[12] = test system: Plasmodium falciparum; assay: Inhibition of recombinant Plasmodium falciparum Dxr expressed in Escherichia coli C43(DE3) using DOXP as substrate assessed as NADPH oxidation at 100 uM by spectrophotometric analysis

| SMILES | IC50 [1] [µM] | IC50 [2] [µM] | MIC50 [3] [µM] | inhibition [4] | inhibition [5] | IC50 [6] [µM] | MIC50 [7] [µM] | MIC50 [8] [µM] | MIC50 [9] [µM] | MIC50 [10] [µM] | MIC50 [11] [µM] | inhibition [12] |
| --- | --- | --- | --- | --- | --- | --- | --- | --- | --- | --- | --- | --- |
| CC(CC(=O)N(C)O)CP(=O)(O)O (centres undefined) | 0.205 | 7.13 | 0.74 (≈ 0.156 µg/mL) | – | – | – | – | – | – | – | – | – |
| Cc1ccc(C(CC(=O)N(C)O)CP(=O)(O)O)cc1 (centres undefined) | – | – | > 64 | inactive | inactive | 9.3 | > 250 | > 250 | > 250 | > 250 | > 250 | – |
| CN(O)C(=O)CC(CCCc1ccccc1)CP(=O)(O)O (centres undefined) | 0.843 | 10.3 | 0.43 (≈ 0.136 µg/mL) | – | – | 0.117 | > 250 | > 250 | > 250 | > 250 | > 250 | – |
| COc1ccc(C(CC(=O)N(C)O)CP(=O)(O)O)cc1 (centres undefined) | – | – | > 64 | inactive | inactive | 18.8 | > 250 | > 250 | > 250 | > 250 | > 250 | – |
| CN(O)C(=O)CC(CP(=O)(O)O)c1ccccc1 (centres undefined) | – | – | > 64 | inactive | inactive | 3.3 | > 250 | > 250 | > 250 | > 250 | > 250 | – |
| CN(O)C(=O)CC(Cc1ccccc1)CP(=O)(O)O (centres undefined) | – | – | ≥ 56.8 | – | Active | – | – | – | – | – | – | Active |
| CN(O)C(=O)CCCP(=O)(O)O | 0.159 | 1.15 | 0.26 (≈ 0.0513 µg/mL) | – | – | – | 31.2 (≈ 6.16 µg/mL) | 15.6 (≈ 3.08 µg/mL) | 31.2 (≈ 6.16 µg/mL) | > 250 | > 250 | – |
| CC(=O)N(O)CCCP(=O)(O)O [FR-900098] | – | – | – | – | – | – | 7.8 (≈ 1.54 µg/mL) | 62.5 (≈ 12.3 µg/mL) | 15.6 (≈ 3.08 µg/mL) | > 250 | > 250 | – |
| O=CN(O)CCCP(=O)(O)O [FOSMIDOMYCIN] | – | – | – | – | – | 0.036 | 0.98 (≈ 0.179 µg/mL) | 250 (≈ 45.8 µg/mL) | 7.8 (≈ 1.43 µg/mL) | > 250 | > 250 | – |
| CN(O)C(=O)CC(CP(=O)(O)O)c1ccc(Cl)cc1 (centres undefined) | – | – | > 64 | inactive | inactive | – | > 250 | > 250 | > 250 | > 250 | > 250 | – |
| CN(O)C(=O)CC(CCc1ccccc1)CP(=O)(O)O (centres undefined) | 31.4 | – | 35.4 (≈ 10.7 µg/mL) | – | – | 1.36 | > 250 | > 250 | > 250 | > 250 | > 250 | – |
| CN(O)C(=O)CC(CP(=O)(O)O)c1ccc(Cl)c(Cl)c1 (centres undefined) | – | – | > 64 | inactive | inactive | – | > 250 | > 250 | > 250 | > 250 | > 250 | – |
| CN(O)C(=O)CC(CCCCc1ccccc1)CP(=O)(O)O (centres undefined) | 6.67 | 273 | < 0.25 | – | – | 0.069 | > 250 | > 250 | > 250 | > 250 | > 250 | – |
